Assay results: patent publication US3932625A, “Method and compound for parasite control” (Purdue Research Foundation, priority 1974, dated 1976)

Key:
[1] = Single-dose acute toxicity (lethal dose, 50% kill of test animals); conditions: rat, in vivo, rats, route not stated, read-out: LD50 (lethal dose as measured by a 50% kill of test animals)
From the text: Thus, 5-Thio-D-glucose is suitable for administering to animals and/or humans.

[2] = system: transport of real D-glucose across a cell membrane; conditions: stated as known characteristic; cited from earlier work

Compound: OC[C@H]1SC(O)[C@H](O)[C@@H](O)[C@@H]1O (stereo partly drawn) [5-Thio-D-glucose]
- LD50 [1]: 14000 mg/kg
- inhibition of transport of real D-glucose across a cell membrane [2]: inhibiting the transport of real D-glucose across a cell membrane
